The values below come from US11649220B2 (DEMOTECH.INC., priority 2018, dated 2023).

Assay [1] relates to Malondialdehyde (MDA) in serum. Description: In vivo anti-lipid oxidation experiment (serum MDA, TBA method). Further details: inhibition rate %: concentration or dose not given beside the values. The note with it: MAD lipid peroxidation in vivo; for inhibition rate %: relative to solvent DMSO and Chow averages; for avarage value of OD: serum, TBA method, 532 nm. From the text:
Experimental principle: Malondialdehyde (MDA) in liposome degradation products could condense with thiobarbituric acid (TBA) to form a red product which has a maximum absorption peak at 532 nm. The spectrophotometer was used to measure the relative absorption value to calculate the antioxidant value.
Reagents: Malondialdehyde (MDA) test kit (article number: A003-1, […], Nanjing Jiancheng), glacial acetic acid of analytically pure grade.
Reagent preparations: 1) Reagent I: Reagent 1 in the kit was taken out from the refrigerator and subjected to natural warming until a transparent liquid is obtained; 2) Reagent II: 170 mL of double-distilled water was added to each bottle and mixed; 3) Reagent III: A dry powder in the kit was dissolved in 60 mL of double-distilled water at 90 to 100° C. After the dry powder was dissolved totally, 30 mL of glacial acetic acid was added and kept in dark place; 4) Standard: 10 nmol/mL tetraethoxypropane.
Experimental procedures: 1) Blank tube: To 2 mL centrifuge tube were added anhydrous ethanol (70 μl), Reagent I (70 μl), Reagent II (0.8 mL) and Reagent III (0.8 mL) in sequence; 2) Standard tube: To 2 mL centrifuge tube were added standard (70 μl), Reagent I (70 μl), Reagent 11 (0.8 mL) and Reagent III (0.8 mL) in sequence; 3) Measuring tube: To 2 mL centrifuge tube were added the serum to be tested and physiological saline (the total volume of serum and physiological saline is 70 μl), Reagent I (70 μl), Reagent II (0.8 mL) and Reagent III (0.8 mL) in sequence; 4) Control tubes: all samples are set up with corresponding control tubes. To a 2 mL centrifuge tube were added the serum to be tested and physiological saline (the total volume of serum and physiological saline is 70 μl), Reagent I (70 μl), Reagent II (0.8 mL) and 50% glacial acetic acid (0.8 mL) in sequence.
After the above reagents were added, the mixture was mixed homogenously. Then the mixture was left in the water bath at 95° C. for 60 minutes. The sample was centrifuged at 4000 rpm for 10 minutes. The supernatant was taken for the measurement of the OD value.
Experimental data processing: the MDA content in serum was calculated as follows: MDA=(OD valuemeasured−OD valuecontrol)/OD valuestandard*concentration of the standard Inhibition rate %=100−(ODsample-average value−average value of Chow)/(average value of the solvent DMSO−average value of Chow)*100

Assay [2] can be described thus: In vitro free radical inhibition test (DPPH method). The note with it: 8 μL of 20 mmol/L compound in 1 mL DPPH 0.059 mg/mL ethanol, 60 min dark, 517 nm; for inhibition rate %: DPPH; for Relative inhibition ability on free radicals: inhibition rate of AGI1067 on DPPH defined as 100. From the text:
1. In Vitro Free Radical Inhibition Test (DPPH Method)
The single electron of DPPH radical has a strong absorption at […], and its alcohol solution is purple. In the presence of a free radical scavenger, the absorption of DPPH radical is weakened or disappeared for the reason that the free radical scavenger is paired with the single electron of DPPH radical, and the degree of discoloration is quantitatively related to the number of electrons DPPH radical receives. Therefore, a spectrophotometer can be used to quickly and quantitatively analyze the free radical scavenging rate of the compound.
1) 1 mL solution of DPPH in absolute ethanol (concentration: 0.059 mg/mL) was taken; 2) 8 μL of the compound to be tested (20 mmol/L) were added; 3) after mixing well, the resultant was kept in dark at room temperature for 60 minutes, 4) the absorbance of the sample at 517 nm was measured.
A general note: DPPH is a stable violet radical that fades when it is reduced.

Assay [3] has as its system golden hamsters (60% high-fat food, STZ induced). Briefly: Golden hamster disease model, animal model induction group (16-week-old group): blood biochemical indexes and body weight. Type of assay: in vivo. As for the experimental part: Animals and feed: 1) 8-week-old male golden hamsters with a body weight range of 100±5 g were selected; 2) 60% high-fat food; 3) 30% high-fat food; 4) general feed: NRC standard feed, containing 5% fat, total calories 4200 kcal/kg.
Animal model induction group (16-week-old group): 1) fed with 60% high-fat food for 2 weeks under standard environment; 2) STZ intraperitoneal injection twice every two days, 50 mg/kg each time; 3) After STZ induction, the golden hamsters were continuous fed for 1 week; 4) Blood was taken from the ocular venous plexus, and the initial body weight, blood glucose, total cholesterol, LDL-c, HDL-c and triglyceride were measured, and the golden hamsters were grouped in parallel according to animal biochemical indicators, 8 in each group; 5) Gavage of compounds: 0.1 mL of solution of compound (concentration: 6.8 mg/mL, DMSO solution) and 0.25 mL of whole milk were mixed evenly and administrated by gavage once a day for 2 weeks; 6) Blank control: 0.1 mL of DMSO and 0.25 mL of whole milk were mixed evenly and administrated by gavage once a day for 2 weeks; 7) Observation time: 14 days later, blood was taken from the ocular venous plexus, and the body weight, blood glucose, total cholesterol, LDL-c, HDL-c and triglyceride were measured.
Instruments: Shimadzu UV-1750 spectrophotometer, clinical determination kit (Changchun Huili Biotechnology Co., Ltd.)
Determination of blood glucose: glucose oxidase method, kit
Determination of total cholesterol (COD-PAP method), kit
Determination of low density lipoprotein cholesterol (direct method), kit
Determination of triglyceride (GP-PAP method)
Determination of high density lipoprotein (direct method), kit

Where [4] appears, read: after gavage once a day for 2 weeks.
Setting [5] is: change rate, gavage once a day for 2 weeks.

`COC(=O)CSC(C)(C)Sc1cc(C(C)(C)C)c(O)c(C(C)(C)C)c1` [Compound 1, methyl 2-((2-((3,5-di-tert-butyl-4-hydroxyphenyl)thio)propan-2-yl)thio)acetate]: in assay [1], the inhibition rate % came to 54.1% and the “avarage value of OD” value is listed as 7.20.
Turning to `CC(C)(SCC(=O)O)Sc1cc(C(C)(C)C)c(O)c(C(C)(C)C)c1` [Compound 2, 2-((2-((3,5-di-tert-butyl-4-hydroxyphenyl)thio)propan-2-yl)thio)acetic acid], in assay [1], the inhibition rate % worked out at 73.5% and the “avarage value of OD” value turned out to be 6.45. Moreover, in assay [2], the inhibition rate % is listed as 27.1% and the “Relative inhibition ability on free radicals” value amounted to 62.1.
For `CCOC(=O)CCSC(C)(C)Sc1cc(C(C)(C)C)c(O)c(C(C)(C)C)c1` [Compound 3, ethyl 3-((2-((3,5-di-tert-butyl-4-hydroxyphenyl)thio)propan-2-yl)thio)propionate], in assay [1], the inhibition rate % amounted to 34.9% and the “avarage value of OD” value turned out to be 7.94. Also, in assay [2], the inhibition rate % was found to be 43.7% and the “Relative inhibition ability on free radicals” value turned out to be 100.2.
As for `CC(C)(SCCC(=O)O)Sc1cc(C(C)(C)C)c(O)c(C(C)(C)C)c1` [Compound 4, 3-((2-((3,5-di-tert-butyl-4-hydroxyphenyl)thio)propan-2-yl)thio)propanoic acid], in assay [1], the inhibition rate % was found to be 84.4% and the “avarage value of OD” value stood at 6.03. Further, in assay [2], the inhibition rate % is given as 24.1% and the “Relative inhibition ability on free radicals” value was 55.2.
Consider `CC(C)(C)c1cc(SSc2cc(C(C)(C)C)c(O)c(C(C)(C)CCO)c2)cc(C(C)(C)C)c1O` [Compound 6, 2,6-di-tert-butyl-4-((3-(tert-butyl)-4-hydroxy-5-(4-hydroxy-2-methylbutan-2-yl)phenyl)disulfanediyl)phenol], for which, in assay [1], the inhibition rate % is 71.2% and the “avarage value of OD” value was found to be 6.54. In assay [2], the inhibition rate % was 53.2% and the “Relative inhibition ability on free radicals” value came out at 95.2.
Take `COc1cc(SC(C)(C)Sc2ccc(O)c(OC)c2)ccc1O` [Compound 7, 4,4′-(propane-2,2-diylbis(thio))bis(2-methoxyphenol)]: in assay [1], the inhibition rate % is on record as 47.6% and the “avarage value of OD” value is recorded as 7.45. In assay [2], the inhibition rate % amounted to 73.9% and the “Relative inhibition ability on free radicals” value was 169.4.
`CC(C)(Sc1cc(C(C)(C)C)c(O)c(C(C)(C)CCO)c1)Sc1cc(C(C)(C)C)c(O)c(C(C)(C)CCO)c1` [Compound 9, 4,4′-(propane-2,2-diylbis(thio))bis(2-(tert-butyl)-6-(4-hydroxy-2-methylbutan-2-yl)phenol)]: in assay [1], the inhibition rate % came out at 62.9% and the “avarage value of OD” value is reported as 6.86. In addition, in assay [2], the inhibition rate % is on record as 55.1% and the “Relative inhibition ability on free radicals” value was determined as 126.3.
Consider `CC(C)(Sc1cc(C(C)(C)C)c(O)c(C(C)(C)C)c1)Sc1cc(C(C)(C)C)c2c(c1)C(C)(C)CCO2` [Compound 10, 2,6-di-tert-butyl-4-((2-((8-(tert-butyl)-4,4-dimethylchroman-6-yl)thio)propan-2-yl)thio)phenol], for which, in assay [1], the inhibition rate % was 47.6% and the “avarage value of OD” value turned out to be 7.45. For the same compound, in assay [2], the inhibition rate % was 41.1% and the “Relative inhibition ability on free radicals” value amounted to 94.1.
Consider `CC(=O)OCCC(C)(C)c1cc(SC(C)(C)Sc2cc(C(C)(C)C)c(O)c(C(C)(C)C)c2)cc(C(C)(C)C)c1O` [Compound 14, 3-(3-(tert-butyl)-5-((2-((3,5-di-tert-butyl-4-hydroxyphenyl)thio)propan-2-yl)thio)-2-hydroxyphenyl)-3-methylbutyl acetate], for which, in assay [1], the inhibition rate % was 55.9% and the “avarage value of OD” value is reported as 7.13. In addition, in assay [2], the inhibition rate % turned out to be 37.3% and the “Relative inhibition ability on free radicals” value is recorded as 85.5.
Turning to `CC(C)(Sc1cc(C(C)(C)C)c(O)c(C(C)(C)C)c1)Sc1cc(C(C)(C)C)c(O)c(C(C)(C)CCOC(=O)[C@H](c2ccccc2Cl)N2CCc3sccc3C2)c1` [Compound 15, (S)-3-(3-(tert-butyl)-5-((2-((3,5-di-tert-butyl-4-hydroxyphenyl)thio)propan-2-yl)thio)-2-hydroxyphenyl)-3-methylbutyl 2-(2-chlorophenyl)-2-(6,7-dihydrothieno[3,2-c]pyridin-5(4H)-yl)acetate], in assay [1], the inhibition rate % worked out at 50.5% and the “avarage value of OD” value is recorded as 7.34. In assay [2], the inhibition rate % is 19.1% and the “Relative inhibition ability on free radicals” value was 43.8.
As to `CC(C)(Sc1cc(C(C)(C)C)c(O)c(C(C)(C)C)c1)Sc1cc(C(C)(C)C)c(O)c(C(C)(C)CCN)c1` [Compound 16, 2-(4-amino-2-methylbutan-2-yl)-6-(tert-butyl)-4-((2-((3,5-di-tert-butyl-4-hydroxyphenyl)thio)propan-2-yl)thio)phenol], in assay [1], the inhibition rate % turned out to be 25.0% and the “avarage value of OD” value is 8.32. In addition, in assay [2], the inhibition rate % was determined as 91.8% and the “Relative inhibition ability on free radicals” value was found to be 210.4.
Taken in the same sequence, the figures for `CCN(CC)CCOCCC(C)(C)c1cc(SC(C)(C)Sc2cc(C(C)(C)C)c(O)c(C(C)(C)C)c2)cc(C(C)(C)C)c1O` [Compound 17, 2,6-di-tert-butyl-4-((2-((3-(tert-butyl)-5-(4-(2-(diethylamino)ethoxy)-2-methylbutan-2-yl)-4-hydroxyphenyl)thio)propan-2-yl)thio)phenol] were 74.0%, 6.43, 27.8% and 63.7.
As for `CC(C)(Sc1cc(C(C)(C)C)c(O)c(C(C)(C)C)c1)Sc1cc(C(C)(C)C)c(O)c(C(C)(C)C)c1` [Compound 30, probucol, reference compound], in assay [1], the inhibition rate % was determined as 53.3% and the “avarage value of OD” value came to 7.23. In addition, in assay [3] (0.1 mL of 6.8 mg/mL DMSO solution + 0.25 mL whole milk by gavage once a day for 2 weeks), the “change rate of blood glucose %” value is given as −1.5%. Further, the “change rate of body weight after deduction of DMSO blank %” value in assay [3] (DMSO blank deducted) is −4.1%. Besides, in assay [3] (setting [4]), the “average body weight after administration/g” value was 141.3 g, the “change of body weight/g” value came to 7.6 g and the “change rate of body weight %” value is on record as 5.7%. Besides, in assay [3] (setting [5]), the HDL % stood at 63.3%, the LDL % is −12.2%, the total cholesterol % was found to be 8.7% and the triglyceride % is on record as −6.5%.
